# In patent US8071810B2, “C5a receptor antagonists” (Jerini AG, priority 2005, dated 2011):
# How the values were obtained:
# [1] = AB permeability in TC-7 cell based assay (Example 34); type: in vitro ADME; details: human, Caco-2, TC-7 cells, apical pH 6.5 / basolateral pH 7.4, 120 min
# Method: Compounds to be tested are prepared at a concentration of 50 μM in HBSS-MES (5 mM, pH 6.5) (from a 10 mM stock solution in 100% DMSO). ^14C-mannitol (about 4 μM) is added and the solution is mixed and centrifuged. The supernatant is added to the apical side of a TC-7 cell culture (passage 15, in 24 well transwell plate) to obtain a DMSO concentration of 1%. At the basolateral side HBSS-HEPES (5 mM, pH 7.4) is placed. Subsequently, the cells are incubated for 120 minutes at 37° C. The integrity of the TC-7 cell layer is checked by means of the added mannitol (Papp <2.5 10^−6 cm/s). The Permeabilität Papp [cm/s] is equal to (VR×CR120)/(Δt×A×(CD,mid−CR,mid)). VR is the volume of the receiver chamber, CR120 the concentration the test compound in the receiver chamber after 120 minutes, Δt the incubation time, A the area of the TC-7 cell layer, CD,mid the midpoint concentration of the test substance in the donor chamber and CR,mid the concentration of the test compound in the receiver chamber.
# [2] = target: T1, human C5a receptor (CD88) (Homo sapiens, UniProt P21730); assay: C5a induced enzyme (glucosaminidase) release assay in RBL cells expressing the human C5a receptor (Example 28); type: cell-based; details: inhibition of C5a induced enzyme release, RBL cells with human C5aR; read-out: Activity-range (antagonistic activity, IC50 enzyme release)
# T1 construct: expressed in transfected cells; host or cells: rat basophilic leukemia (RBL) cells, stably transfected
# T1 sequence (P21730 1-350): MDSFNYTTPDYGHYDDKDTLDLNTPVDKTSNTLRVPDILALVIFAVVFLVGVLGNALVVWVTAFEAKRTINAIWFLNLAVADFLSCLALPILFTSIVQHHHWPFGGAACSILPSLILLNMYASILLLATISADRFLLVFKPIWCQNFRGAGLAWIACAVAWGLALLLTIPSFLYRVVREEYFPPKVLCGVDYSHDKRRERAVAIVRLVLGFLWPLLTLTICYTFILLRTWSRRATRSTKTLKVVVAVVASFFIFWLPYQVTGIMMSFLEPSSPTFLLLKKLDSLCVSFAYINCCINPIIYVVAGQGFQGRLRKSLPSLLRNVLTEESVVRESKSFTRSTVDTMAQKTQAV
# Method in brief: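 Rat basophilic leukemia (RBL) cells expressing human C5a receptor, at 2×10^6 cells/ml, primed with cytochalasin B, then incubated with test compound 10 min at 37 °C.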
# C5a receptor = target: T2, C5a receptor (Homo sapiens, UniProt P21730); assay: Binding of 125I-C5a to human C5aR transfected HEK293 cells (Example 27); set-up: expressed in transfected cells; host or cells: HEK293 cells; details: 125I-C5a tracer, read-out: IC50 for the inhibition of the binding of C5a to the C5a receptor
# T2 sequence (P21730 1-350): T1 sequence (P21730 1-350)
# Method: The binding studies are done as determination of IC50 values with radioactively labeled C5a (125I) as tracer. For this purpose, human C5aR transfected HEK293 cells are adjusted to a concentration of […]. 30 μl of the cell suspension are added into a microtiter plate. Then the C5a receptor antagonists are added followed by 10 minutes pre-incubation at room temperature. After that, 10 μl of labelled C5a are added (15.000 cpm). The mixture is now incubated over ice for 30 minutes. After this the cells are isolated by means of a filter plate (Millipore MHVB 4510) and washed two times with 100 μl HAG-CM each (see example 32). The cells are dried and, after transferring the filter plate onto the adapter plate (Canberra 6005178), 50 μl/well Microscint 0 are added and the plate is measured in the scintillation counter.
structure (smiles),measurement,setting,value
"CCc1ccc(N(C(=O)Nc2c(CC)c(N)cc(Cl)c2CC)C(C)c2ccc3c(c2)ncn3C)cc1 (stereo not drawn) [compound 122, 3-(3-amino-5-chloro-2,6-diethyl-phenyl)-1-(4-ethyl-phenyl)-1-[1-(1-methyl-1H-benzoimidazol-5-yl)-ethyl]-urea]","Papp A→B at 120 min, 50 μM",[1],3.5 ×10⁻⁶ cm/s
same,IC50,[2],60 to 200 nM
"CCc1c(N)cc(Cl)c(CC)c1NC(=O)N(Cc1ccc(Cl)cc1)c1ccc(CC(F)(F)F)cc1 [compound 103, 3-(3-amino-5-chloro-2,6-diethyl-phenyl)-1-(4-chloro-benzyl)-1-[4-(2,2,2-trifluoro-ethyl)-phenyl]-urea]",IC50,C5a receptor,58.6 nM
same,IC50,[2],60 to 200 nM
"CCc1ccc(N(Cc2ccc(C)nc2)C(=O)Nc2c(CC)c(N)cc(Cl)c2CC)cc1 [compound 106, 3-(3-amino-5-chloro-2,6-diethyl-phenyl)-1-(4-ethyl-phenyl)-1-(6-methyl-pyridin-3-ylmethyl)-urea]","Papp A→B at 120 min, 50 μM",[1],22.3 ×10⁻⁶ cm/s
same,IC50,[2],60 to 200 nM
